Source: patent publication US20240425514A1, “ALSTONINE DERIVATIVES AND SALTS THEREOF” (priority 2021, published 2024)
Entries after “also recorded” stand apart in the source; their conditions may differ. Where a name gives a salt, the structure may show the parent alone.

Experiments:
zebrafish [1] = assay: Social preference test in zebrafish, MK-801 model; assay type: in vivo, Danio rerio; conditions: for overall effect on all parameters of the social preference test: drug pretreatment, then water or MK-801 5 μM
Method: (§1) Here, the ability of alstonine salts to reverse schizophrenia-like symptoms produced by MK-801 in zebrafish was evaluated. The atypical antipsychotic olanzapine was used as a comparison.
(§2) Experiments were performed using male and female (50:50 ratio) short-fin wild-type zebrafish (4-month-old, 300-500 mg). Adult animals were obtained from a local commercial supplier (Delphis, R S, Brazil). The animals were maintained at Instituto de Ciências Básicas da Saúde in a light/dark cycle of 14/10 h with lights on at 7:00 a.m for at least two weeks before tests. Fish were kept in 40-L (30×46×33 cm) unenriched glass tanks with non-chlorinated water at a maximum density of five animals per liter. Tank water satisfied the controlled conditions required for zebrafish (26±2° C.; pH 7.0±0.3; dissolved oxygen at 7.0±0.4 mg/L; total ammonia at <0.01 mg/L; total hardness at 5.8 mg/L; alkalinity at 22 mg/L CaCO3; conductivity of 1,500-1,600 μS/cm) and was constantly filtered by mechanical, biological, and chemical filtration systems. Food was provided twice a day as commercial flake food (Poytara®, SP, Brazil) plus brine shrimp (Artemia salina). The sex of the animals was confirmed after euthanasia by dissecting and analyzing the gonads. For all experiments, no sex effects were observed, so data were pooled together. Animals were euthanized by hypothermic shock according to the AVMA Guidelines for the Euthanasia of Animals (Leary and Johnson, 2020).
(§3) MK-801 (dizocilpine) and sulpiride were purchased from Sigma-Aldrich (St. Louis, MO, USA); olanzapine was purchased from Selleck Chemicals. Alstonine hydrochloride, alstonine benzoate, and alstonine benzensulfonate were prepared as described herein. MK-801, olanzapine, and alstonine hydrochloride were dissolved in distilled water, with sonication in an ultrasonic bath for the latter. Sulpiride, alstonine benzoate, and alstonine benzensulfonate were dissolved in 100% DMSO; stock solutions were diluted to achieve a final DMSO concentration of 1% for the highest concentration. MK-801 solutions were freshly prepared, while alstonine stock solutions were kept refrigerated for up to five days. Exposure solutions were renovated halfway through the experiment, with a maximum of four fish exposed to the same solution.
(§4) Different sets of animals were used for each experiment, totaling 600 zebrafish in the study (plus 200 zebrafish serving as stimulus animals). Animals were individually exposed to water or alstonine solutions at 2.5, 5 or 10 mg/L in 500-mL beakers containing 200-mL solution for 20 min (n=15). These concentrations were extrapolated from mice studies. Fish were then transferred to another beaker containing either water or MK-801 at 5 μM and remained there for another 20 minutes.
(§5) The animals were allocated to the experimental groups following block randomization procedures to counterbalance for home tank, sex, and day of testing. The order for outcome assessment was also randomized and care was taken to counterbalance the test apparatuses across the experimental groups. Outcome assessors were blind to the experimental groups, as well as the experimenters responsible for taking the animal and placing it in the test apparatus.
The protocol for the social preference test in zebrafish followed the method described by Benvenutti et al. (2021). After exposure, animals were placed for 7 min in a tank (30×10×15 cm) flanked by two identical tanks (15×10×13 cm) either empty (neutral stimulus) or containing 10 unknown zebrafish (social stimulus). All three tanks were filled with water in standard conditions at a level of 10 cm. The position of the social stimulus (right or left) was counterbalanced throughout the tests. The water in the test tanks was changed between every animal. To assess social behavior, the test apparatus was virtually divided into three vertical zones (interaction, middle, and neutral). Animals were habituated to the apparatus for 2 min and then analyzed for the last 5 min. […]

zebrafish [2] = assay: Open tank test in zebrafish, MK-801 model; assay type: in vivo, Danio rerio; conditions: for overall effect on the analyzed parameters of the open tank test: drug pretreatment
Method: as §1, §2, §3, §4, §5
The protocol for the open tank test followed the method described by Benvenutti et al. (2021). Immediately after the social preference test, animals were placed in the center of the open tank arena and recorded for 10 min. The apparatus consisted of a white circular arena (24 cm in diameter and 8 cm in height, 2 cm water level). The apparatus format and the acquisition of videos from the top view allows the evaluation of locomotor parameters related to stereotypic behavior (circular movements and absolute turn angle). The water was changed between every animal. The following outcomes were automatically scored using ANY-Maze software (Stoelting Co., Wood Dale, IL, USA): total distance traveled, absolute turn angle, number of clockwise rotations, and immobility time. […]

D2, and 5-HT2A receptors = conditions: cortex membranes; preliminary binding studies; cited from earlier work
dopamine (DA) uptake = conditions: mouse striatal synaptosomes; cited from earlier work
mice = conditions: 0.5-1.0 mg/kg ip; cited from earlier work
D1 = biological target: T1, D1 (Homo sapiens, UniProt P21728); conditions: cortex membranes; preliminary binding studies; cited from earlier work
T1 construct: host or cells: cortex membranes (tissue)
T1 sequence (P21728 whole entry): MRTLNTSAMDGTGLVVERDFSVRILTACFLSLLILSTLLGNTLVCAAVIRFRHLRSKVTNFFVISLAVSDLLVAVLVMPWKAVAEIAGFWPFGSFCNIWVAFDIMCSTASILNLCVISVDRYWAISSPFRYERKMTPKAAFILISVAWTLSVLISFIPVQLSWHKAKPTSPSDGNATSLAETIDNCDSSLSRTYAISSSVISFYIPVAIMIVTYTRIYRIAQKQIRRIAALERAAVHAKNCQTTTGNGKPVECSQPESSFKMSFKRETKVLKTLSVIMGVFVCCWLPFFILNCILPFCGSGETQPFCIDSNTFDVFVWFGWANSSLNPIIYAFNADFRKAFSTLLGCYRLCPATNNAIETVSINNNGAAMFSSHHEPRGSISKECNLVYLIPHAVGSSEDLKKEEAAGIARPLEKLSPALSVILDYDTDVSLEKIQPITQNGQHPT

[3] = MK-801 5 μM vs control, experiment with olanzapine
[4] = MK-801 5 μM vs controls, experiment with sulpiride

With `COC(=O)C1=CO[C@@H](C)[C@@H]2Cn3ccc4c5ccccc5nc-4c3C[C@H]12` [Alstonine hydrochloride] the “overall effect on all parameters of the social preference test” value (from here on “overall effect on all parameters”) (zebrafish [1]) was “potentiated the effects of MK-801 in the social preference test”, the “time in the zone of interaction” value (zebrafish [1]; fish exposed 20 min to drug, then 20 min to water or MK-801 5 μM, main effect of drug pretreatment, two-way ANOVA) was “nonspecifically reduced the time in the zone of interaction at the intermediate and highest concentrations” and the number of crossings (zebrafish [1]; interaction between drug pretreatment and MK-801 5 μM, Bonferroni post hoc) was “potentiated the effect of MK-801 at the intermediate concentration”.
For `C[C@]12N[C@H](Cc3ccccc31)c1ccccc12` [MK-801, dizocilpine], the absolute turn angle (zebrafish [2]; main effect of MK-801 5 μM) was “decreased”, the clockwise rotations (zebrafish [2]; main effect of MK-801 5 μM) was “decreased” and the distance traveled (zebrafish [2]; main effect of MK-801 5 μM) was “decreased the distance traveled”. The immobility time (zebrafish [2]; main effect of MK-801 5 μM) was “increased the immobility time”, the number of crossings (zebrafish [1]; [3]) was “increased” and the “time in the social interaction zone” value (zebrafish [1]; [3]) was “spent less time in the social interaction zone”. The total distance traveled (zebrafish [1]; [3]) was “increased the total distance traveled”, the immobility time (zebrafish [1]; [4]) was “increased” and the number of crossings (zebrafish [1]; [4]) was “increased the number of crossings”.
In the case of `CCN1CCCC1CNC(=O)c1cc(S(N)(=O)=O)ccc1OC` (stereo not shown) [Sulpiride, sulpiride], the “overall effect on the analyzed parameters of the open tank test” value (zebrafish [2]; then water or MK-801 5 μM) is reported as “no significant effects on any of the analyzed parameters” and the “overall effect on all parameters” value (zebrafish [1]) is reported as “devoid of effects on all parameters”.
For `COC(=O)C1=COC(C)C2C[n+]3ccc4c([nH]c5ccccc54)c3CC12.O=S(=O)([O-])c1ccccc1` (stereo not shown) [alstonine benzensulfonate, Alstonine benzenesulfonate], the immobility time (zebrafish [2]; drug pretreatment 20 min, then water or MK-801 5 μM, interaction with MK-801, post hoc) was “the intermediate and highest concentrations prevented the increase in immobility time induced by MK-801; also recorded: subgroup of animals that respond to alstonine benzensulfonate regarding immobility time to the level of controls”, the distance traveled (zebrafish [2]; drug pretreatment 20 min, then water or MK-801 5 μM, main effect of drug) was “trend for a main effect on total distance” and the clockwise rotations (zebrafish [2]; drug pretreatment 20 min, then water or MK-801 5 μM, main effect or interaction with MK-801) was “significant interaction; also recorded: preventing (at the highest concentrations) the effects of MK-801 on clockwise rotations”. For the same molecule, the “overall effect on the analyzed parameters of the open tank test” value (zebrafish [2]; then water or MK-801 5 μM) was “possess antipsychotic-like properties similar to olanzapine” and the “overall effect on all parameters” value (zebrafish [1]) was “devoid of statistically significant effects”.
With `COC(=O)C1=COC(C)C2C[n+]3ccc4c([nH]c5ccccc54)c3CC12.O=C([O-])c1ccccc1` (stereo not shown) [alstonine benzoate, Alstonine benzoate] the “overall effect on all parameters” value (zebrafish [1]) was “devoid of statistically significant effects” and the immobility time (zebrafish [1]; interaction between drug pretreatment and MK-801 5 μM) was “trend for alstonine benzoate to prevent the effects of MK-801 on immobility time in the highest concentration tested”.
For `COC(=O)C1=CO[C@@H](C)[C@@H]2Cn3ccc4c5ccccc5nc-4c3C[C@H]12` [alstonine], the “effect on [3H]Spiperone binding” value (D2, and 5-HT2A receptors) is listed as “does not affect”, the DA uptake (dopamine (DA) uptake) is listed as “increasing DA uptake” and the “antipsychotic properties in mice models” value (mice) is listed as “shows antipsychotic properties”. For the same molecule, the “effect on [3H]SCH23390 binding” value (D1) was “does not affect”.
